Source: US8679766B2, “E-cadherin as a biomarker of gastroesophageal reflux disease” (The University of North Carolina at Chapel Hill, priority 2009, dated 2014)
Entries after “also recorded” stand apart in the source; their conditions may differ. Like-named read-outs stand apart in the source and are kept apart here.

Legend:
rabbit EE [1] = assay: Ca++-switch technique: junctional opening and resealing (RT) in EE; format: cell-based
Description: Below the TJ is the adherens junction (AJ), a structure that encircles the cell and initiates and stabilizes cell-cell adhesion, and by doing so, the AJ supports the barrier function of the TJ (36, 37). The single-pass, transmembrane protein of the AJ is the Ca^++-dependent E-cadherin (E-cad) and this connects directly to a group of catenins (α-catenin, β-catenin, p120-catenin), which in turn connect E-cad to the cytoskeleton via α-catenin's interaction with actin microfilaments, to the microtubules via p120-catenin's interaction with PLEKHA7/nezha and tubulins (38, 39), and to the TJ via p120-catenin's binding to ZO-136. Cell-cell adhesion by E-cad results from the Ca^++-dependent, homotypic, association between the extracellular domains of neighboring cells. Indeed, the Ca^++ sensitivity is so characteristic that it forms the basis of the ‘Ca^++-switch technique’ where Ca^++ removal from both bathing solutions results in junctional opening (decline in RT) and its restoration results in ‘resealing’ (recovery of RT) (40). This method was used to define the role of E-cad in junctional adhesion in EE (41). Removing Ca^++ lowered RT by about 35% over 2 hrs while restoration returned RT to baseline (41). […] Further, resealing was also shown to be dependent on E-cad because it was inhibited by antibodies (HECD-1, DECMA-1) or small synthetic peptides to its extracellular (N-terminal) domain of E-cad, but not by […] antibodies (4A2C7) to its intracellular (C-terminal) domain (41).
E-cadherin is a component of the adherens junction, a structure known to be important in junctional barrier function in most epithelia, including that of the esophagus (36, 41, 121). It is a single-span, transmembrane protein whose carboxy (C)-terminus resides in the cytoplasm and whose amino (N)-terminus resides in the intercellular space. The N-terminus of E-cadherin molecules from membranes of adjacent cells form a barrier by calcium-dependent binding to each other within the intercellular space. Since the protein bridges of E-cadherin both encircle the cell membrane and support the adhesion of the bridging proteins (occludin and claudins) forming the tight junction, they play an integral role in establishing junctional (electrical) resistance and controlling junctional permeability. This role for E-cadherin in (rabbit) EE has recently been shown in the Ussing chamber using the calcium-switch technique (41).

rabbit EE [2] = assay: Junctional opening (RT) of EE by exposure to luminal HCl pH 1.6; format: cell-based; conditions: microtubule stabilizer taxol
rabbit EE [3] = conditions: cited from earlier work
esophagitis [4] = conditions: rat model of reflux; cited from earlier work
esophagitis [5] = conditions: patients with duodeno-esophageal reflux post-gastrectomy; cited from earlier work
[6] = tested on: cleavage of E-cad in rabbit EE; assay: Acid-activated cleavage of E-cad in Ussing-chambered rabbit EE, W-blot for CTF with C-terminal antibody 4A2C7; format: cell-based
rabbit EE [7] = assay: Barrier breaker search: rabbit EE in U-chambers, monitoring RT (marker of PCP) and Isc; format: cell-based
Description: Agents that increase paracellular permeability (PCP) in EE are potential contributors to GERD by enabling diffusion of luminal acid into the intercellular space. Therefore, substances were sought within the refluxate, meals and inflammation that could ‘break the barrier’. This was done by exposing rabbit EE in U-chambers to candidate inflammatory agents while both monitoring RT, as a marker of PCP, and Isc (short circuit current), as a marker of active transport. The inflammatory agents were selected based on presence in EE or on reports that they can break the barrier in other epithelia (47-60).

[8] = γ-secretase inhibitor 10 μM, acid-exposed EE

Compound: C=C1[C@@H](C)[C@H]2[C@H](Cc3ccccc3)NC(=O)[C@]23[C@H](OC(C)=O)/C=C/[C@@](C)(O)C(=O)[C@@H](C)C/C=C/[C@H]3[C@@H]1O [cytochalasin D]
- junctional resealing during the Ca++-switch technique (rabbit EE [1]; microfilament destabilizer, 2 uM): inhibited

Compound: CC(=O)O[C@H]1C(=O)[C@@]2(C)[C@H]([C@H](OC(=O)c3ccccc3)[C@]3(O)C[C@H](OC(=O)[C@H](O)[C@@H](NC(=O)c4ccccc4)c4ccccc4)C(C)=C1C3(C)C)[C@]1(OC(C)=O)CO[C@@H]1C[C@@H]2O [taxol]
- junctional opening by exposure to luminal pH 1.6 (rabbit EE [2]): inhibit junctional opening
- junctional opening by Ca++-free soln (rabbit EE [1]; microtubule stabilizer, 50 μM): inhibited
- junctional resealing (rabbit EE [1]; taxol, data normalized at the end of junctional opening in Ca++-free solution): Inhibition of resealing

Compound: O=S(=O)(O)CCN1CCN(CCO)CC1 [HEPES]
- luminal acid-induced increase in PCP (reduction in RT) (rabbit EE [3]; serosal HEPES): without preventing the luminal acid-induced increase in PCP
- luminal acid-induced cell necrosis (rabbit EE [3]; serosal buffer replacing bathing solution bicarbonate): prevented

Compound: COc1cc2c(c(OC)c1OC)-c1ccc(OC)c(=O)cc1[C@@H](NC(C)=O)CC2 [colchicine]
- junctional resealing during the Ca++-switch technique (rabbit EE [1]; microtubule destabilizer): inhibited

Compound: CN(C)C(=O)COC(=O)Cc1ccc(OC(=O)c2ccc(NC(=N)N)cc2)cc1 [camostat mesilate]
- esophagitis (esophagitis [4]): reduce esophagitis
- esophagitis (esophagitis [5]): reduce esophagitis

Compound: CNC(=O)[C@@H](NC(=O)[C@H](CC(C)C)[C@H](O)C(=O)NO)C(C)(C)C [Marimastat]
- cleavage of E-cad ([6]; Marimastat 10 μM, luminal HCl pH 1.1 for 30 min or serosal HCl pH 2.0 for 5 min): blocked; also recorded: abolition

Compound: C[C@H](NC(=O)Cc1cc(F)cc(F)c1)C(=O)N[C@H](C(=O)OC(C)(C)C)c1ccccc1 [DAPT75, DAPT]
- cleavage of E-cad [6, 8]: did not block cleavage
- pattern of E-cad cleavage (CTFs on W-blot) [6, 8]: yielding two CTFs instead of one

Compound: trypsin: barrier breaker at pH 7.4, can be present within refluxates of near-neutral pH
- breaks the barrier (RT as marker of PCP) (rabbit EE [7]; at pH 7.4): barrier breakers
- junctional damage by luminal trypsin (DIS, E-cad cleavage) (rabbit EE [7]; luminal exposure): results in both DIS (61) and cleavage of E-cad's extracellular domain

Compound: CCO [alcohol]
- breaks the barrier (RT as marker of PCP) (rabbit EE [7]; at pH 7.4): barrier breakers

Compound: C[C@H](CCC(=O)NCCS(=O)(=O)O)[C@H]1CC[C@H]2[C@@H]3[C@H](O)C[C@@H]4C[C@H](O)CC[C@]4(C)[C@H]3C[C@H](O)[C@]12C [taurocholic acid]
- breaks the barrier (RT as marker of PCP) (rabbit EE [7]; at pH 2): barrier breakers

Compound: CC(=O)Nc1ccc(C=Cc2ccc(N=C=S)cc2S(=O)(=O)O)c(S(=O)(=O)O)c1 [SITS, 4-acetoamido-4′-isothiocyanostilbene-2,2′-disulfonic acid]
- cell swelling and necrosis (rabbit EE [3]; serosal HCl pH 2.0, serosal pretreatment 4 mM): prevented
